Laboratory results: ChEMBL document CHEMBL1149579, “N-(5-chloro-2-(hydroxymethyl)-N-alkyl-arylsulfonamides as gamma-secretase inhibitors” (Bioorg Med Chem Lett, 2007)

test system: Mus musculus; assay: Decrease in amyloid beta level in Tg2576 betaAPP swedish transgenic mouse brain at 500 umol/kg, sc twice a day for 5 days; type: functional; set-up: scale not given: the % may be the effect or the level left; conditions: not given

SMILES | Activity [%]
CCC[C@@H](C)N(c1cc(Cl)ccc1CO)S(=O)(=O)c1ccc(Cl)cc1 | 38

test system: not listed separately; assay: Drug level in Tg2576 betaAPP swedish transgenic mouse brain at 500 umol/kg, po after 3 hrs; type: ADME, organism-based; conditions: read-out: Drug uptake

concentration at 3 h [µM] | SMILES
5.2 | CCC[C@@H](C)N(c1cc(Cl)ccc1CO)S(=O)(=O)c1ccc(Cl)cc1

test system: not listed separately; assay: Protein binding in rat plasma at 10 ug/mL; type: ADME, cell-free; conditions: read-out: PPB

fraction unbound at 10 ug/mL | SMILES
< 0.01 | CCC[C@@H](C)N(c1cc(Cl)ccc1CO)S(=O)(=O)c1ccc(Cl)cc1

test system: not listed separately; assay: Drug level in Tg2576 betaAPP swedish transgenic mouse plasma at 500 umol/kg, sc twice a day for 5 days; type: ADME, organism-based; conditions: not given

concentration at 120 h [µM] | SMILES
21 | CCC[C@@H](C)N(c1cc(Cl)ccc1CO)S(=O)(=O)c1ccc(Cl)cc1

target: Gamma-secretase; assay: Inhibition of gamma secretase-mediated beta-APP cleavage in human H4 cells assessed by measuring Abeta40 production by ELISA; type: cell-based; conditions: not given

IC50 [µM] | SMILES
0.025 | CC(CCF)N(c1cc(Cl)ccc1CO)S(=O)(=O)c1ccc(Cl)cc1 (centres undefined)
0.007 | CC(CCCF)N(c1cc(Cl)ccc1CO)S(=O)(=O)c1ccc(Cl)cc1 (centres undefined)
3.7 | CCC[C@H](C)N(c1cc(Cl)ccc1CO)S(=O)(=O)c1ccc(C)cc1
0.012 | CC(C1CCC1)N(c1cc(Cl)ccc1CO)S(=O)(=O)c1ccc(Cl)cc1 (centres undefined)
1.3 | CCCC(C)N(c1cc(Cl)ccc1CO)S(=O)(=O)c1ccc(OC)cc1 (centres undefined)
0.023 | CC(C)CC(C)N(c1cc(Cl)ccc1CO)S(=O)(=O)c1ccc(Cl)cc1 (centres undefined)
0.56 | CCCC(C)N(c1cc(Cl)ccc1CO)S(=O)(=O)c1ccc(Cl)cc1Cl (centres undefined)
0.019 | CCCC(C)N(c1cc(Cl)ccc1CO)S(=O)(=O)c1ccc(Cl)cc1 (centres undefined)
0.1 | CC[C@@H](C)N(c1cc(Cl)ccc1CO)S(=O)(=O)c1ccc(C)cc1
0.005 | CCCC[C@@H](C)N(c1cc(Cl)ccc1CO)S(=O)(=O)c1ccc(Cl)cc1
0.049 | CC(C1CC1)N(c1cc(Cl)ccc1CO)S(=O)(=O)c1ccc(Cl)cc1 (centres undefined)
0.75 | CCCN(c1cc(Cl)ccc1CO)S(=O)(=O)c1ccc(C)cc1
0.033 | CC(C1CCCCC1)N(c1cc(Cl)ccc1CO)S(=O)(=O)c1ccc(Cl)cc1 (centres undefined)
0.04 | CCCC(C)N(c1cc(Cl)ccc1CO)S(=O)(=O)c1ccc(C)cc1 (centres undefined)
0.056 | CCCC(C)N(c1cc(Cl)ccc1CO)S(=O)(=O)c1ccc(Br)cc1 (centres undefined)
0.013 | CCN(c1cc(Cl)ccc1CO)S(=O)(=O)c1ccc(Cl)cc1
0.72 | CCCC(C)N(c1cc(Cl)ccc1CO)S(=O)(=O)c1ccc(C(C)C)cc1 (centres undefined)
0.7 | Cc1ccc(S(=O)(=O)N(CC(C)C)c2cc(Cl)ccc2CO)cc1
0.004 | C[C@H](CCc1ccccc1)N(c1cc(Cl)ccc1CO)S(=O)(=O)c1ccc(Cl)cc1
0.1 | CC(c1ccc2ccccc2c1)N(c1cc(Cl)ccc1CO)S(=O)(=O)c1ccc(Cl)cc1 (centres undefined)
0.072 | CCCC(C)N(c1cc(Cl)ccc1CO)S(=O)(=O)c1ccc(C(F)(F)F)cc1 (centres undefined)
0.066 | CCCC(C)N(c1cc(Cl)ccc1CO)S(=O)(=O)c1ccc(F)cc1 (centres undefined)
0.36 | CCCC(C)N(c1cc(Cl)ccc1CO)S(=O)(=O)c1ccc(CC)cc1 (centres undefined)

IC50 [µM] | SMILES
0.4 | C=C(C)CN(c1cc(Cl)ccc1CO)S(=O)(=O)c1ccc(C)cc1
0.014 | C=CC[C@@H](C)N(c1cc(Cl)ccc1CO)S(=O)(=O)c1ccc(Cl)cc1
1.3 | CC[C@H](C)N(c1cc(Cl)ccc1CO)S(=O)(=O)c1ccc(C)cc1
0.041 | CC(Cc1ccccc1)N(c1cc(Cl)ccc1CO)S(=O)(=O)c1ccc(Cl)cc1 (centres undefined)
0.19 | Cc1ccc(S(=O)(=O)N(c2cc(Cl)ccc2CO)C(C)C2CCCCC2)cc1 (centres undefined)
1 | CCC(CC)N(c1cc(Cl)ccc1CO)S(=O)(=O)c1ccc(C)cc1
0.92 | Cc1ccc(S(=O)(=O)N(CCCC(C)C)c2cc(Cl)ccc2CO)cc1
0.014 | CC(C1CCCC1)N(c1cc(Cl)ccc1CO)S(=O)(=O)c1ccc(Cl)cc1 (centres undefined)
1.3 | CCCCN(c1cc(Cl)ccc1CO)S(=O)(=O)c1ccc(C)cc1
1.2 | CCCC(C)N(c1cc(Cl)ccc1CO)S(=O)(=O)c1ccccc1 (centres undefined)
0.14 | C/C=C/C(C)N(c1cc(Cl)ccc1CO)S(=O)(=O)c1ccc(Cl)cc1 (centres undefined)
0.14 | CCCCN(c1cc(Cl)ccc1CO)S(=O)(=O)c1ccc(Cl)cc1
0.24 | CCCC(C)N(c1cc(Cl)ccc1CO)S(=O)(=O)c1ccc(Cl)c(Cl)c1 (centres undefined)
0.18 | CCCC(C)N(c1cc(Cl)ccc1CO)S(=O)(=O)c1ccc(C#N)cc1 (centres undefined)
1.1 | CCN(c1cc(Cl)ccc1CO)S(=O)(=O)c1ccc(C)cc1
0.022 | CC(c1ccc(Cl)cc1)N(c1cc(Cl)ccc1CO)S(=O)(=O)c1ccc(Cl)cc1 (centres undefined)
> 25 | CCCC(C)N(c1cc(Cl)ccc1CO)S(=O)(=O)c1c(Cl)cc(Cl)cc1Cl (centres undefined)
1 | Cc1ccc(S(=O)(=O)N(CC2CCCCC2)c2cc(Cl)ccc2CO)cc1
0.024 | CCC[C@@H](C)N(c1cc(Cl)ccc1CO)S(=O)(=O)c1ccc(C)cc1
1.2 | CCCC(C)N(c1cc(Cl)ccc1CO)S(=O)(=O)c1cccc(C)c1 (centres undefined)
2 | Cc1ccc(S(=O)(=O)N(CCC(C)(C)C)c2cc(Cl)ccc2CO)cc1
0.35 | Cc1ccc(S(=O)(=O)N(c2cc(Cl)ccc2CO)C(C)CC(C)(C)C)cc1 (centres undefined)

test system: not listed separately; assay: Drug level in Tg2576 betaAPP swedish transgenic mouse brain at 500 umol/kg, sc twice a day for 5 days; type: ADME, organism-based; conditions: read-out: Drug uptake

concentration at 120 h [µM] | SMILES
14 | CCC[C@@H](C)N(c1cc(Cl)ccc1CO)S(=O)(=O)c1ccc(Cl)cc1

test system: not listed separately; assay: Protein binding in mouse plasma at 10 ug/mL; type: ADME, cell-free; conditions: read-out: PPB

fraction unbound at 10 ug/mL | SMILES
< 0.01 | CCC[C@@H](C)N(c1cc(Cl)ccc1CO)S(=O)(=O)c1ccc(Cl)cc1

test system: not listed separately; assay: Protein binding in human plasma at 10 ug/mL; type: ADME, cell-free; conditions: read-out: PPB

fraction unbound at 10 ug/mL | SMILES
< 0.01 | CCC[C@@H](C)N(c1cc(Cl)ccc1CO)S(=O)(=O)c1ccc(Cl)cc1

test system: Mus musculus; assay: Decrease in amyloid beta level in Tg2576 betaAPP swedish transgenic mouse brain at 500 umol/kg, po after 3 hrs; type: functional; set-up: scale not given: the % may be the effect or the level left; conditions: not given

SMILES | Activity [%]
CCC[C@@H](C)N(c1cc(Cl)ccc1CO)S(=O)(=O)c1ccc(Cl)cc1 | 25

test system: not listed separately; assay: Drug level in Tg2576 betaAPP swedish transgenic mouse plasma at 500 umol/kg, po after 3 hrs; type: ADME, organism-based; conditions: not given

concentration at 3 h [µM] | SMILES
1.6 | CCC[C@@H](C)N(c1cc(Cl)ccc1CO)S(=O)(=O)c1ccc(Cl)cc1
